Laboratory results from patent publication US6750244B2, “Compounds active at a novel site on receptor-operated calcium channels useful for treatment of neurological disorders and diseases” (NPS Pharmaceuticals, Inc., priority 1993, dated 2004).
Several values for one entry are separate records, joined by “and”; a condition that tells them apart may be missing. Equal entries are not always repeated. Structures can show the parent of a compound that is named as a salt. Where two headings read alike, the source gives them in different places.

Assays:
NMDA receptor = assay: Inhibition of NMDA/glycine-induced increases in intracellular calcium in cultured rat cerebellar granule cells (RCGC); format: cell-based; details: for IC50: read-out: IC50 (μM) vs. NMDA
[1] = tested on: mean arterial blood pressure
in vivo = details: Frings, mouse, in vivo, ip
Description: In this assay, Frings and CF1 mice were injected with test compound and placed on a knurled rod which rotated at a speed of 6 rpm. The ability of the mice to maintain equilibrium for long periods of time was determined; those mice that were unable to maintain equilibrium on the rotorod for 1 min in each of 3 trials were considered impaired.

sound-induced seizures = assay: Sound-induced seizures in Frings mice (reflex epilepsy); format: in vivo; details: Mus musculus, ip; Frings mice
[2] = biological target: NMDA receptor-ionophore complex (site labeled by [3H]MK-801); assay: Inhibition of [3H]MK-801 binding in rat cortical/hippocampal washed membrane preparations; details: read-out: IC50 (μM) vs. [3H]MK-801
behavior = assay: Behavioral effects in conscious male NMRI mice
[3] = biological target: T1, norepinephrine uptake site (Rattus norvegicus, UniProt Q63380); assay: Norepinephrine uptake binding assay: [3H]desipramine binding to rat cortical membranes
T1 construct: from tissue; host or cells: rat cortical membranes (per the assay title)

[4] = tested on: central muscarinic cholinergic receptor; format: binding, rat
serotonin uptake site = biological target: T2, serotonin uptake site (Rattus norvegicus, UniProt P31652); assay: Serotonin uptake binding assay: [3H]citalopram binding to rat forebrain membranes
T2 construct: from tissue; host or cells: rat forebrain membranes (per the assay title)

dopamine uptake site = biological target: T3, dopamine uptake site (Cavia porcellus, UniProt H0WCX4); assay: Dopamine uptake binding assay: [3H]WIN-35,428 binding to guinea pig striatal membranes
T3 construct: from tissue; host or cells: guinea pig striatal membranes (per the assay title)

[5] = NMDA/glycine-induced increases in intracellular calcium, cultured rat cerebellar granule cells
[6] = rat cortical/hippocampal washed membranes
[7] = rat cortical/hippocampal washed membranes, hydrochloride

T3 sequence (H0WCX4 1-619): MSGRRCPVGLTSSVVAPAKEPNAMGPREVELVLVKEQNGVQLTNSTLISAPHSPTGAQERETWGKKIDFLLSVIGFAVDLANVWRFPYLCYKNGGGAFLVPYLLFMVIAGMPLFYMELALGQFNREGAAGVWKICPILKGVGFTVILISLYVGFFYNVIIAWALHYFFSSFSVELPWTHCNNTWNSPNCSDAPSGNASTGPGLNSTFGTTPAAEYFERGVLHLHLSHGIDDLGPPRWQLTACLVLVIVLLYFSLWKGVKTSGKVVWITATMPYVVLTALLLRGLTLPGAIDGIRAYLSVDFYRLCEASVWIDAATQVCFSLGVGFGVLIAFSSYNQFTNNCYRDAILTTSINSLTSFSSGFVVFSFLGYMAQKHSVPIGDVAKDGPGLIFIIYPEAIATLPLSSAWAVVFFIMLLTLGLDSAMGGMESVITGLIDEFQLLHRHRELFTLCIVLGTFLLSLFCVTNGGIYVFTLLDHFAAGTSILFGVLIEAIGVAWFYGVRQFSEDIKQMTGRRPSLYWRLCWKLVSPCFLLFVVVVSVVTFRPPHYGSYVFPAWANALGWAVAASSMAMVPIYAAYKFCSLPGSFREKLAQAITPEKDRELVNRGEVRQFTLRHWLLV
T2 sequence (P31652 whole entry): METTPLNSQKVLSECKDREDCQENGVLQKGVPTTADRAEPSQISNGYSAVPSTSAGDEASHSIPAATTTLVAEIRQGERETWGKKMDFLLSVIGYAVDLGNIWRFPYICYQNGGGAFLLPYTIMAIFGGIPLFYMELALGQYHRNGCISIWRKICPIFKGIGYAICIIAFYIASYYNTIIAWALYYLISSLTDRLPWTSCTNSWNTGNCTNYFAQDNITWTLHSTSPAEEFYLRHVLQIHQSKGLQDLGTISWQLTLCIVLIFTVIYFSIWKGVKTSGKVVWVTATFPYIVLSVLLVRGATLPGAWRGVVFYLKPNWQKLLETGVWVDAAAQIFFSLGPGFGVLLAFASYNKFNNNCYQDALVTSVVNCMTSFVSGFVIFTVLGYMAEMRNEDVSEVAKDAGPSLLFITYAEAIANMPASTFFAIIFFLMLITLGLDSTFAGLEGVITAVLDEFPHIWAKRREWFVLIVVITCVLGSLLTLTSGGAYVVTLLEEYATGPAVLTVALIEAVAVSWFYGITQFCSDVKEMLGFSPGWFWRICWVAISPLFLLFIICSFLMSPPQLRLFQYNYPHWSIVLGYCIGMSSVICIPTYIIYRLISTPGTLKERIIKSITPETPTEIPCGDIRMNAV
T1 sequence (Q63380 1-617): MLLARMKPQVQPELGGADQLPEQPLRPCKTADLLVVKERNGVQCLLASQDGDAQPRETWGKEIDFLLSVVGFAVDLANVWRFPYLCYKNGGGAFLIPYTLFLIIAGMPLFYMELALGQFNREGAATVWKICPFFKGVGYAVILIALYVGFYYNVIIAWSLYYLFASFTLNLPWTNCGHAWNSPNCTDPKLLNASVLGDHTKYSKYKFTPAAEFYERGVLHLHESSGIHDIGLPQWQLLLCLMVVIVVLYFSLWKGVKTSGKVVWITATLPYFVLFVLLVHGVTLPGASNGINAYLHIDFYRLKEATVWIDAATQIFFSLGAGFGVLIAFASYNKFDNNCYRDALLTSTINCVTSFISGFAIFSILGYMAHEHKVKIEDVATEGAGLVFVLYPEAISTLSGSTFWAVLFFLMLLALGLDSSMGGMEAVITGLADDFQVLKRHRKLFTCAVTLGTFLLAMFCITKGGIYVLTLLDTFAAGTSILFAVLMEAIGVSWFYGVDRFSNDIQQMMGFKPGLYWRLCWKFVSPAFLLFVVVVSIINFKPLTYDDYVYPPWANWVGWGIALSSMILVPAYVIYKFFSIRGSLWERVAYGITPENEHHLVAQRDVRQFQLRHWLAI

CCNCCCNCCCNCCCNC(=O)Cc1c[nH]c2ccc(F)cc12 [Compound 11]
IC50 (NMDA receptor; [5]): 4 µM | Drop in Mean Arterial Blood Pressure ([1]; 1 mg/kg i.v., rats): 20 mm Hg at 1 | Drop in Mean Arterial Blood Pressure: duration ([1]; 1 mg/kg i.v., rats): mg/kg i.v., 30 min | duration of the hypotensive effect ([1]; systemic administration in rats): approximately 30 min

CC(CN)C(c1cccc(F)c1)c1cccc(F)c1 (stereo not shown) [Compound 21, 3,3-bis(3-fluorophenyl)-2-methyl-1-propylamine]
TD50 (in vivo): 15.3 mg/kg | ED50 (sound-induced seizures): 3.41 mg/kg | IC50 (NMDA receptor; [5]): 0.038 µM | IC50 [2, 6]: 0.457 µM

NCCC(c1cccc(Cl)c1)c1cccc(Cl)c1 [Compound 31, 3,3-bis(3-chlorophenyl)-1-propylamine]
TD50 (in vivo): 10 to 20 mg/kg | ED50 (sound-induced seizures): 6 mg/kg | IC50 (NMDA receptor; [5]): 0.052 µM | IC50 [2, 6]: 1.3 µM

C[C@H](CN)C(c1cccc(F)c1)c1cccc(F)c1 [Compound 34, 3,3-bis(3-fluorophenyl)-2-methyl-1-propylamine]
behavioral effects (behavior; 2 mg/kg i.p.): hyperthermia | behavioral effects (behavior; 4 mg/kg i.p.): no behavioral effects | behavioral effects (behavior; 8 mg/kg i.p.): excitation, increased reactivity to touch, and hypothermia | behavioral effects (behavior; 64 mg/kg i.p.): convulsions | behavioral effects (behavior; 16 and 32 mg/kg i.p.): excitation, Straub tail, tremor, jumping, stereotypies, hypothermia, and mydriasis | behavioral effects (behavior; 128 and 256 mg/kg i.p.): convulsions and death | TD50 (in vivo): 10 to 15 mg/kg | Monoamine uptake binding assays: norepinephrine uptake binding assay, percent block ([3]; at 0.1 μM): 10^f10% at | Monoamine uptake binding assays: norepinephrine uptake binding assay, percent block ([3]; at 10 μM): 0.1^g64% at | Central muscarinic cholinergic receptor: percent block of [3H]QNB binding ([4]; at 0.1 μM): 25% at | Central muscarinic cholinergic receptor: percent block of [3H]QNB binding ([4]; at 10 μM): 0.199% at | ED50 (sound-induced seizures): 22 mg/kg | IC50 (NMDA receptor; [5]): 0.426 µM | Monoamine uptake binding assays: serotonin uptake binding assay, percent block (serotonin uptake site; at 0.1 μM): 10^g12% at | Monoamine uptake binding assays: serotonin uptake binding assay, percent block (serotonin uptake site; at 10 μM): 0.1^h79% at | Monoamine uptake binding assays: dopamine uptake binding assay, percent block (dopamine uptake site; at 0.1 μM): 60% at | Monoamine uptake binding assays: dopamine uptake binding assay, percent block (dopamine uptake site; at 10 μM): 0.1^f99% at | IC50 [2, 6]: 2.7 µM

Cc1ccc(F)cc1C(CCN)c1cccc(F)c1 (stereo not shown) [Compound 57, 3-(3-fluorophenyl)-3-(3-fluoro-6-methylphenyl)-1-propylamine]
TD50 (in vivo): 6 to 8 mg/kg | ED50 (sound-induced seizures): 1 mg/kg | IC50 (NMDA receptor; [5]): 0.028 µM | IC50 [2, 6]: 0.063 µM

N[C@@H]1CCCC1C(c1cccc(F)c1)c1cccc(F)c1 (stereo partly shown) [Compound 64]
Monoamine uptake binding assays: norepinephrine uptake binding assay, percent block ([3]; at 0.1 μM): 8% at | Monoamine uptake binding assays: norepinephrine uptake binding assay, percent block ([3]; at 10 μM): 0.1^g65% at | Central muscarinic cholinergic receptor: percent block of [3H]QNB binding ([4]; at 0.1 μM): 11% at | Central muscarinic cholinergic receptor: percent block of [3H]QNB binding ([4]; at 10 μM): 0.183% at | IC50 (NMDA receptor; [5]): 0.309 µM | Monoamine uptake binding assays: serotonin uptake binding assay, percent block (serotonin uptake site; at 0.1 μM): 10^g29% at | Monoamine uptake binding assays: serotonin uptake binding assay, percent block (serotonin uptake site; at 10 μM): 0.1^h68% at | Monoamine uptake binding assays: dopamine uptake binding assay, percent block (dopamine uptake site; at 0.1 μM): 50% at | Monoamine uptake binding assays: dopamine uptake binding assay, percent block (dopamine uptake site; at 10 μM): 0.1^f99% at | IC50 [2, 6]: 0.851 µM

NCCC(Oc1cccc(F)c1)c1cccc(F)c1 (stereo not shown) [Compound 119]
TD50 (in vivo): 26.3 mg/kg | ED50 (sound-induced seizures): 7 mg/kg | IC50 (NMDA receptor; [5]): 0.115 µM | IC50 [2, 6]: 0.087 µM

NCCC(Oc1cccc(Cl)c1)c1cccc(F)c1 (stereo not shown) [Compound 120]
TD50 (in vivo): 20 to 30 mg/kg | ED50 (sound-induced seizures): 4.77 mg/kg | IC50 (NMDA receptor; [5]): 0.101 µM | IC50 [2, 6]: 0.074 µM

NCCC(Oc1ccccc1F)c1cccc(F)c1 (stereo not shown) [Compound 122]
TD50 (in vivo): 15.3 mg/kg | ED50 (sound-induced seizures): 4.7 mg/kg | IC50 (NMDA receptor; [5]): 0.209 µM | IC50 [2, 6]: 0.342 µM

NCCC(Oc1ccccc1)c1ccccc1 (stereo not shown) [Compound 146]
IC50 (NMDA receptor; [5]): 0.829 µM | IC50 [2, 6]: 0.372 µM

NCCC(Oc1ccccc1)c1cccc(Cl)c1 (stereo not shown) [Compound 148]
IC50 (NMDA receptor; [5]): 0.549 µM | IC50 [2, 6]: 0.373 µM

NCCC(Oc1cccc(Cl)c1)c1cccc(Cl)c1 (stereo not shown) [Compound 149]
IC50 (NMDA receptor; [5]): 0.085 µM | IC50 [2, 6]: 0.15 µM

NCCC(Oc1cccc(F)c1)c1cccc(Cl)c1 (stereo not shown) [Compound 150]
IC50 (NMDA receptor; [5]): 0.195 µM | IC50 [2, 6]: 0.351 µM

NCCC1c2ccccc2CCc2ccccc21 [Compound 156, 5-(2-Aminoethyl)-5H-10,11-dihydrodibenzo[a,d]cycloheptene hydrochloride]
TD50 (in vivo): 17.4 mg/kg | ED50 (sound-induced seizures): 5 mg/kg | IC50 (NMDA receptor; [5]): 0.069 µM | IC50 [2, 7]: 0.09 µM and 0.081 µM

CCCC(NCCC(c1ccccc1)c1ccccc1)c1ccccc1 (stereo not shown) [Compound 157]
IC50 (NMDA receptor; [5]): 0.142 µM | IC50 [2, 6]: 23.2 µM

CC(C)C(NCCC(c1ccccc1)c1ccccc1)c1ccccc1 (stereo not shown) [Compound 158]
IC50 (NMDA receptor; [5]): 0.351 µM | IC50 [2, 6]: 39.6 µM

CCC(NCCC(c1ccccc1)c1ccccc1)c1cccc(Cl)c1 (stereo not shown) [Compound 159]
IC50 (NMDA receptor; [5]): 0.185 µM | IC50 [2, 6]: 10.4 µM

CCC(NCCC(c1ccccc1)c1ccccc1)c1ccc(Cl)cc1 (stereo not shown) [Compound 160]
IC50 (NMDA receptor; [5]): 7.35 µM | IC50 [2, 6]: 48.9 µM

CCC(NCCC(c1ccccc1)c1ccccc1)c1cccc(Br)c1 (stereo not shown) [Compound 161]
IC50 (NMDA receptor; [5]): 0.247 µM | IC50 [2, 6]: 5.62 µM

CCC(NCCC(c1ccccc1)c1ccccc1)c1ccccc1F (stereo not shown) [Compound 163]
IC50 (NMDA receptor; [5]): 0.326 µM | IC50 [2, 6]: 10.3 µM

CCC(NCCC(c1ccccc1)c1ccccc1)c1cccc(F)c1 (stereo not shown) [Compound 164]
IC50 (NMDA receptor; [5]): 0.475 µM | IC50 [2, 6]: 18.3 µM

CCC(NCCC(c1ccccc1)c1ccccc1)c1ccc(F)cc1 (stereo not shown) [Compound 165]
IC50 (NMDA receptor; [5]): 0.337 µM | IC50 [2, 6]: 171 µM

CCC(NCCC(c1ccccc1)c1ccccc1)c1ccc(OC)cc1 (stereo not shown) [Compound 166]
IC50 (NMDA receptor; [5]): 0.619 µM | IC50 [2, 6]: 36.7 µM

CCC(NCCC(c1ccccc1)c1ccccc1)c1cccc(C)c1 (stereo not shown) [Compound 168]
IC50 (NMDA receptor; [5]): 0.092 µM | IC50 [2, 6]: 17.4 µM

CCC(NCCC(c1ccccc1)c1ccccc1)c1ccc(C)cc1 (stereo not shown) [Compound 169]
IC50 (NMDA receptor; [5]): 0.298 µM | IC50 [2, 6]: 26.7 µM

CCC(NCCC(c1ccccc1)c1ccccc1)c1cccc([N+](=O)[O-])c1 (stereo not shown) [Compound 170]
IC50 (NMDA receptor; [5]): 0.238 µM | IC50 [2, 6]: 57 µM

c1ccc(C(CCNC(c2ccccc2)C2CC2)c2ccccc2)cc1 (stereo not shown) [Compound 171]
IC50 (NMDA receptor; [5]): 0.31 µM | IC50 [2, 6]: 39.6 µM

COc1ccc(C(=CCN)c2cccc(F)c2)cc1F [Compound 172, (E))- and (Z)-3-(3-Fluoro-4-methoxy)-3-(3-fluorophenyl)allylamine hydrochloride]
IC50 (NMDA receptor; [5]): 38 µM | IC50 [2, 6]: 37.3 µM

Cc1ccccc1OC(CCN)c1cccc(F)c1 (stereo not shown) [Compound 181]
IC50 (NMDA receptor; [5]): 0.081 µM | IC50 [2, 6]: 0.632 µM

NCCC1c2ccccc2Oc2ccccc21 [Compound 182]
IC50 (NMDA receptor; [5]): 2.6 µM | IC50 [2, 6]: 7.05 µM

NCCC1c2ccccc2Sc2ccccc21 [Compound 183]
IC50 (NMDA receptor; [5]): 0.676 µM | IC50 [2, 6]: 5.01 µM

NCCC1c2ccccc2C=Cc2ccccc21 [Compound 184]
IC50 (NMDA receptor; [5]): 1.5 µM | IC50 [2, 6]: 1.51 µM and 1.65 µM

NCC[C@H](Oc1cccc(F)c1)c1ccccc1 [Compound 186]
IC50 (NMDA receptor; [5]): 0.155 µM | IC50 [2, 6]: 0.123 µM

NCCC1c2ccccc2COc2ccccc21 (stereo not shown) [Compound 187, 11-(2-Aminoethyl)-11H-10,11-dihydrodibenzo[b,c]oxepine hydrochloride]
IC50 (NMDA receptor; [5]): 1.78 µM | IC50 [2, 7]: 2.01 µM and 2.06 µM

NCCN1c2ccccc2CCc2ccccc21 [Eli Lilly Compound, reference compound]
IC50 (NMDA receptor; [5]): 0.609 µM | IC50 [2, 6]: 1.17 µM

CNCCC=C1c2ccccc2CCc2ccccc21 [Nortriptyline, reference compound]
IC50 (NMDA receptor): 3.7 µM | IC50 [2]: 5.67 µM

CNCCCC1c2ccccc2C=Cc2ccccc21 [protriptyline, reference compound]
% inhibition vs. NMDA (NMDA receptor): 73% @ 10 μM | IC50 (NMDA receptor; [5]): ≤ 10 µM | IC50 [2, 6]: 21.4 µM
